Measured values published in publication PMC5696490, “Modelling foetal exposure to maternal smoking using hepatoblasts from pluripotent stem cells” (Archives of Toxicology, 2017).

Columns and labels:
[1] = tested on: Caspase 3/7; test: Caspase 3/7 activity (pGlo) in donor one hESC-derived hepatocytes; type: cell-based, human; details: concentration of peak caspase 3/7 activity, 8 days exposure
Method: (§1) H9 and Man12 human embryonic stem cells (hESCs) identity was confirmed using short tandem repeat typing. hESCs were cultured and differentiated as previously described (Cameron et al. [2015]). Maintenance of hESCs was performed on pre-coated laminin 521 (Biolaminin) in mTeSR1 ([…] Technologies) in a humidified 37 °C, 5% CO2 incubator. For differentiation, hESCs were plated onto a pre-coated blend of laminins 521 and 111 (at a 1:3 ratio). Differentiation was initiated at 40% confluence by replacing serum-free medium with endoderm differentiation medium: RPMI 1640 containing 1× B27 (Life Technologies), 100 ng/mL Activin A (PeproTech), and 50 ng/mL Wnt3a (R&D Systems). The medium was changed every 24 h for 72 h. On day 3, endoderm differentiation medium was replaced with hepatoblast differentiation medium, and this was renewed every second day for a further 5 days. The medium consisted of knockout (KO)-DMEM (Life Technologies), Serum replacement (Life Technologies), 0.5% Glutamax (Life Technologies), 1% non-essential amino acids (Life Technologies), 0.2% β-mercaptoethanol (Life Technologies), and 1% DMSO (Sigma). On day 8, differentiating cells were cultured in the hepatocyte maturation medium HepatoZYME (Life Technologies) containing 1% Glutamax (Life Technologies), supplemented with 10 ng/mL hepatocyte growth factor (PeproTech) and 20 ng/mL oncostatin M (PeproTech). On day 10 maturation medium was replaced with HepatoZYME supplemented with and without smoking derivatives (Sigma-Aldrich) for a further 8 days, with media replaced every 48 h.
(§2) Cell health was assessed measuring ATP production and Caspase 3/7 activity at Day 18 employing pGlo technology (Promega) in accordance with the manufacturer’s instructions. Levels of expression of both markers were expressed as percentage of relative light units (RLUs) per milliliter of medium and normalised to the vehicle control. Levels of significance were measured by Student’s t test. The experiments are representative of five biological replicates.
(§3) Hepatocyte specification and maturation was performed in male and female hESCs lines in the presence or absence to smoking components. Cotinine at a concentration range of 1 to 300 nM, chrysene at a concentration range of 10 nM to 50 μM, fluorene at a concentration range of 10 nM to 100 μM, naphthalene at a concentration range of 10nm to 1 mM and phenanthrene, at a concentration range of 10 nM to 500 μM were used. Following 8 days exposure, cell health was determined by ATP production and caspase activity. Following this cell function was determined measuring CYP P450 3A and 1A2 activity. In order to measure the effectiveness of each component of cigarette smoke to inhibiting activity we used the half maximal inhibitory concentration (IC50).

[2] = tested on: Caspase 3/7; test: Caspase 3/7 activity (pGlo) in donor two hESC-derived hepatocytes; type: cell-based, human; details: concentration of peak caspase 3/7 activity, 8 days exposure
Method: as §1, §2, §3

[3] = tested on: CYP3A; test: CYP3A activity (pGlo) in donor two hESC-derived hepatocytes; details: human two
Method: as §1
CYP3A and CYP1A2 activity was measured in hepatocytes at Day 18 using pGlo technology (Promega) in accordance with the manufacturer’s instructions. CYP activity was expressed as either relative light units (RLUs) per milliliter of medium per milligram of protein (determined by the BCA assay, Pierce), or as a percentage of CYP activity normalised to the vehicle control. Levels of significance were measured by Student’s t test. The experiments are representative of five biological replicates.
as §3

[4] = target: T1, CYP1A2 (Homo sapiens, UniProt P05177); test: CYP1A2 activity (pGlo) in donor one hESC-derived hepatocytes; type: cell-based; details: female hepatocytes, 8 days exposure
T1 sequence (P05177 2-516): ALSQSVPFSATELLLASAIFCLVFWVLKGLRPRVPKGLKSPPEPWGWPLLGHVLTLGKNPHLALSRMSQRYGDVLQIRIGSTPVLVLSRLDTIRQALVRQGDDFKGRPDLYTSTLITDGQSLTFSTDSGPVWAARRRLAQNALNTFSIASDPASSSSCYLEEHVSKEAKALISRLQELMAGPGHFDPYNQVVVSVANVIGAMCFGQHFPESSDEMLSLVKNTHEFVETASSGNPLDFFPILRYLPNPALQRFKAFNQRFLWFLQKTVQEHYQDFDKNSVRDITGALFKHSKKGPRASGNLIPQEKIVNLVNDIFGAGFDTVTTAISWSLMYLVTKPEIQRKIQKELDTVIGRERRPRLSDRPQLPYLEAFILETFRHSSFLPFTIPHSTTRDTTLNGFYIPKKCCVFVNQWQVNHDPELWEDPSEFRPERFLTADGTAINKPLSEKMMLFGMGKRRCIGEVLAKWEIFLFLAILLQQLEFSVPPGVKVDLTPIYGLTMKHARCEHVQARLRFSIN
Source text: The experiments are representative of five biological replicates.

Row | SMILES | Caspase 3/7 peak activity Female [1] [µM] | Caspase 3/7 peak activity Male [2] [µM] | IC50 at 8 days [3] [µM] | IC50 CYP1A2 person one [4] | IC50 CYP1A2 person one ([4]; listed as naphthalene)
1 | c1ccc2c(c1)Cc1ccccc1-2 [Fluorene] | >100 | 100 | 25 |  | 
2 | CN1C(=O)CC[C@H]1c1cccnc1 [Cotinine] | 0.1 | 0.1 | 0.05 |  | 
3 | c1ccc2c(c1)ccc1ccccc12 [Phenanthrene] | >500 | 10 | 58 |  | 
4 | c1ccc2ccccc2c1 [Naphthalene] | 50 | 1000 | 68 | Induced activity | induced CYP1A2 activity
5 | c1ccc2c(c1)ccc1c3ccccc3ccc21 [Chrysene] | 25 | 5 | 10 |  | 
